Experimental data reported in patent US20040219104A1, “Methods for treatment of tumors” (priority 2003, published 2004).

System: JJ5 Breast Cancer cells
Assay: Kinetics of binding, internalization and retention of radioactivity in JJ5 breast cancer cells
Type: cell-based, human
Details: 37° C.
Procedure: For the normal breast cell line HBL-100, 8000 EGFR/cell has been reported. The expression of EGFR in breast cancer cell lines has a reported range of 800 EGFR/cell for MCF-7 cells to […] for MDA-MB-468 cells. […] Utilizing the Auger electron emitter ^111In was used in the initial experiments to illustrate the utility of the invention using EGF-^111In-labeled transferrin conjugates. The EGF-^111In-labeled transferrin (0.25-80 ng) was incubated with 1.5×10^6 cells/dish JJ5 Breast Cancer (prepared from BCBM JJ5) cells in 1 mL of 0.1% human serum albumin in 35 mm multiwell culture dishes at 37° C. for 30 minutes. The cells were transferred to a centrifuge tube and centrifuged. The cell pellet was separated from the supernatant and counted in a g-scintillation counter to determine bound (B) and free (F) radioactivity. Non-specific binding was determined by conducting the assay in 100 nM hEGF. The kinetics of binding was determined by incubating 1 ng of EGF-^111In-labeled transferrin conjugate with 3×10^6 JJ5 Breast Cancer cells at 37° C. and determining the proportion of radioactivity bound to the cells at various times up to 24 hours. Internalized fraction was measured by determining the proportion of radioactivity which could not be displaced from the cell surface by 100 nM hEGF. […]

**Q.** Which “binding by the breast cancer cells (kinetics)” value does the source give for “EGF-^111In-labeled transferrin conjugate: conjugate containing human epidermal growth factor (EGF) linked (biotin/streptavidin linker) to 111In-radiolabeled human transferrin” here?
**A.** Its value is “rapidly bound”.
